Experimental data: ChEMBL document CHEMBL1151297, “Studies of the Thymelaeaceae II. Antineoplastic principles of Gnidia kraussiana” (1984)
≈ marks a conversion by molar mass, not a printed value.

These compounds were tested on P388 (assay: Cytotoxicity against mouse P388 cells). Details: read-out: ED50 (the source's name).
Format: functional
C=C(C)[C@]12C[C@@H](C)[C@@]34O[C@](/C=C/C=C/CCCCC)(O[C@@H]1[C@@H]3[C@@H]1O[C@]1(CO)[C@@H](O)[C@]1(O)C(=O)C(C)=C[C@H]14)O2 [EXCOECARIA TOXIN] was tested, and the EC50 was 0.24 ng/mL (≈ 0.454 nM).
C=C(C)[C@]12C[C@@H](C)[C@@]34O[C@@]5(CCCCCCC[C@H](C)[C@H]6[C@H](C)[C@H](OC(=O)c7ccccc7)[C@@](O)([C@H](O)[C@@]7(CO)O[C@H]7[C@@H]3[C@H]1O5)[C@@H]64)O2 was tested, and the EC50 was 2.3 ng/mL (≈ 3.6 nM).
Work on C=C(C)[C@@]12C[C@@H](C)[C@@]34OC5(O[C@@H]1[C@@H]3[C@@H]1O[C@]1(CO)[C@@H](O)[C@@]1(O)[C@H]4[C@H]([C@H](C)[C@@H]1OC(=O)c1ccccc1)[C@H](C)CCCCCC[C@H]5O)O2 [KRAUSSIANIN] yielded an EC50 of 0.78 ng/mL (≈ 1.19 nM).
Work on C=C(C)[C@@]12O[C@@]3(/C=C/C=C/CCCCC)O[C@@H]1[C@@H]1[C@@H]4O[C@]4(CO)[C@@H](O)[C@]4(O)C(=O)C(C)=C[C@H]4[C@@]1(O3)[C@H](C)[C@H]2OC(=O)c1ccccc1 [GNIDILATIDIN] yielded an EC50 of less than 1 ng/mL.
With C=C(C)[C@@]12O[C@@]3(CCCCCCCCC)O[C@@H]1[C@@H]1[C@@H]4O[C@]4(CO)[C@@H](O)[C@]4(O)C(=O)C(C)=C[C@H]4[C@@]1(O3)[C@H](C)[C@H]2OC(=O)c1ccccc1 [GNIDILATIN] the EC50 was less than 1 ng/mL.

The compounds below were run on P388 (assay: In vivo antitumor activity against mouse P388 cells at 30 ug/kg). Details: not given.
Format: functional
For C=C(C)[C@@]12C[C@@H](C)[C@@]34OC5(O[C@@H]1[C@@H]3[C@@H]1O[C@]1(CO)[C@@H](O)[C@@]1(O)[C@H]4[C@H]([C@H](C)[C@@H]1OC(=O)c1ccccc1)[C@H](C)CCCCCC[C@H]5O)O2 [KRAUSSIANIN], the T/C was 152%.
